Earlier results as cited in patent US20220401378A1, “COMPOSITIONS COMPRISING FUNCTIONAL FRAGRANCES AND CANNABIS-DERIVED COMPOUNDS” (THIS WORKS PRODUCTS LIMITED, priority 2020, published 2022).

Test system: anxiety

| Compound | effectiveness in reducing anxiety compared with trazodone hydrochloride |
| --- | --- |
| C=C[C@](C)(O)CCC=C(C)C [R-(−)-linalool] | as effective as the trazodone hydrochloride in reducing anxiety |
| C=C[C@@](C)(O)CCC=C(C)C [S-(+)-linalool] | as effective as the trazodone hydrochloride in reducing anxiety |
